Test results: ChEMBL document CHEMBL1158645, “Antitumor agents 37. The isolation and structural elucidation of isohelenol, a new antileukemic sesquiterpene lactone, and isohelenalin from Helenium microcephalum” (1979)

System: P388
Assay: In vivo antitumor activity against mouse P388 lymphocytic leukemia at 12.5 mg/kg
Assay type: functional

Compound `C[C@@H]1C[C@H]2OC(=O)C(CO)=C2[C@H](O)[C@]2(C)C(=O)C=C[C@@H]12` [ISOHELENOL] has a T/C of 133%.
